Literature values in article PMC7362765 (Accounts of chemical research, 2019).

Tested on: DF3
Assay: oxidation to quinone […], saturation kinetics
Format: biochemical, synthetic construct
Details: diiron form, ambient O2; recounted from the authors' own ref 19

Q: Which Km does the source give for CC(C)(C)c1cc(O)c(O)c(C(C)(C)C)c1 [compound 6, 3,5-di-tert-butylcatechol] here?
A: 2100 µM
